Test results published in article PMC9410094 (Marine Drugs, 2022).
≈ marks a conversion by molar mass, not a printed value. Positions of bridges follow the written chain, without caps; N, C: chain ends. Residues, ends and D or L forms follow the SMILES beside them.

Tests used:
[1] = tested on: E. coli ML-35p; settings: for Fold reduction of antibacterial activity in the presence of serum: MHB + 0.9% NaCl with 25% FBS versus without
Procedure: Initially, antimicrobial activity of abarenicin and UuBRI-21 was evaluated against the reference strain of E. coli (ML-35p) under various conditions (Table 1). Minimal inhibitory concentrations (MICs) were determined via two-fold serial dilutions in 96-well polystyrene plates. Serial dilutions were made in 0.1% bovine serum albumin (BSA) to minimize the absorption of peptides on the surface of plate wells. Mueller–Hinton broth (MHB) supplemented with 0.9% NaCl was used as the standardized medium.
(§1) Bacterial cultures were grown in MHB at 37 °C until the culture reached an optical density OD600 of 1.0 and diluted with the broth so that to reach a final cell concentration of 10^6 CFU/mL. Then 50 μL of the test culture were added to 50 μL of aqueous solutions of the peptides, previously diluted in 0.1% sterilized bovine serum albumin (BSA) to reduce non-specific binding of the peptides to the surface of the plates. Next, the plate was incubated for 24 h at 37 °C and 950 rpm on the plate thermoshaker (Biosan). The values of the minimum inhibitory concentrations (MIC) were determined as the minimum concentration of the peptide, at which there is no culture growth. The results were expressed as the median values of three independent experiments performed in triplicate.

[2] = RP-HPLC retention time as measure of hydrophobicity; type: physicochemical; settings: chromatographic, semipreparative RP-HPLC, C18 column, linear gradient 5 to 80% (v/v) acetonitrile in water with 0.1% TFA within 50 minutes; used as measure of hydrophobicity
Procedure: Table S1. Characteristics of the recombinant AMPs.
1 Mean Kyte–Doolittle hydrophobicity index (GRAVY) was calculated using the Expasy ProtParam tool. The maximum and minimum values of this index are +4.5 and -4.5 for poly-Ile and poly-Arg sequences, respectively. 2 Retention times were measured using semipreparative reversed-phase high-performance liquid chromatography (RP - HPLC) on a C18 column with a linear gradient from 5 to 80% ( v/v) acetonitrile in water containing 0.1% trifluoroacetic […]
acid (TFA) within 50 minutes. […]

[3] = tested on: E. coli ATCC 25922; assay: Mice septicemia model, survival; settings: BALB/c mice, n = 8, E. coli ATCC 25922 i.p. with 2.5% mucin
Procedure: Ciprofloxacin (the single dose of 10 mg/kg) and saline were used as the positive and negative controls, respectively. […] Mice were controlled once daily for their health status during 7 post-infection days.
Then, we examined an efficacy of AMPs in the mice septicemia model using 8 animals in a group (Figure 10B).
Experiments were performed with female 8–10-week-old BALB/c mice (22–24 g, “Andreevka” laboratory animal nursery FMBA, Russia). […] All animal experiments were performed at the State Research Center for Applied Microbiology and Biotechnology (SRCAMB) in Obolensk, Russia. The animals were housed in groups of 5 in polycarbonate cages. Food and water were provided ad libitum.
A total of 4 groups with 8 animals were used. The first group received ciprofloxacin (Sigma, Kawasaki, Kanagawa, Japan) administered i.p. once (1 h post-infection) at a dose of 10 mg/kg. The second group received saline (as a vehicle control) administered i.p. once (1 h post-infection). […] Survival was monitored for 7 days. After that survived animals were euthanized by CO2 asphyxiation.

[4] = tested on: E. coli 3421/E19; assay: Neutropenic mice peritonitis model; type: in vivo, BALB/c mice; settings: for Efficacy in the neutropenic peritonitis model (in words): single i.v. dose of 10 mg/kg, E. coli 3421/E19
Procedure: Immune-deficient mice were inoculated intraperitoneally (i.p.) with bacterial suspension. Antimicrobial agent was administered 1 h post-infection, and colony counts in blood and peritoneal fluid (PF) were determined 5 h later.
(A) The mice peritonitis model. […] Horizontal bars indicate means ± SD.
Food and water were provided ad libitum.
CFU counts were determined from blood and peritoneal fluid (PF) 5 h after treatment. The mice were euthanized by CO2 asphyxiation and blood was collected by axillary cut down. A total of 2 mL sterile saline was injected i.p. and the abdomen gently massaged before it was opened, fluid sampled with a pipette, serially diluted and placed on Endo agar supplemented with 20 µg/mL of tetracycline for CFU identification.

[5] = tested on: Gram-positive bacteria; type: cell-based; settings: 24 h
Procedure: as §1, with “The antimicrobial activity of the peptides was determined via the method of two-fold serial dilutions in sterile 96-well flat-bottom polystyrene microplates (Eppendorf #0030730011) in Mueller–Hinton broth (MHB, Sigma, Kawasaki, Kanagawa, Japan) supplemented with 0.9% NaCl. Bacterial” for “Bacterial”

[6] = tested on: Gram-negative bacteria; assay: Geometric mean of MICs, Gram-negative panel; type: cell-based
Procedure: as §1, with “The antimicrobial activity of the peptides was determined via the method of two-fold serial dilutions in sterile 96-well flat-bottom polystyrene microplates (Eppendorf #0030730011) in Mueller–Hinton broth (MHB, Sigma, Kawasaki, Kanagawa, Japan) supplemented with 0.9% NaCl. Bacterial” for “Bacterial”

[7] = tested on: P. aeruginosa PAO1 mature biofilms; assay: Effect on mature biofilms, viability by MTT; settings: P. aeruginosa PAO1 pre-formed biofilm, 2-h exposure
Procedure: Biofilm viability was measured by tetrazolium salt reduction (right panel). Values are presented as means ± the standard deviation (SD) of three independent experiments.
The effect of peptides on pre-formed biofilms was evaluated as follows. Biofilms were grown on a 96-well plate at 32 °C for 24 h and stirred at 120 rpm to ensure biofilm formation primarily on the wall of the wells. […] Bacterial survival in the biofilms after 2-h exposure was evaluated via a MTT assay after incubation with a tested peptide. Then, wells were rinsed with sterile water, treated with an MTT solution (Sigma, Kawasaki, Kanagawa, Japan) in PBS, and incubated for 4 h at 37 °C. Next, the medium was removed. The resulting formazan crystals were dissolved in a mixture of EtOH and DMSO (1:1) for 10 min. The optical density of the solution was measured at 570 nm. Bacterial survival was calculated as percent relative to samples without antimicrobial agent. All data were obtained from at least three independent experiments in 3 repetitions.

[8] = tested on: human red blood cells; type: cell-based
Procedure: Figure 4 (A) Hemolytic effect on human red blood cells after 2 h incubation (hemoglobin release assay). (B) Cytotoxicity toward transformed human embryonic kidney cells after 20 h incubation (MTT-assay). The positive control used was 0.1% Triton X-100 and sterile PBS as a negative control. Melittin was used as an additional positive control. The data are presented as the mean ± SD of three independent experiments.
The hemolytic activity of compounds was performed using human red blood cells (hRBS) of healthy donor. Fresh blood was centrifuged to separate the erythrocyte fraction for 15 min at 500 g and washed three times with cold phosphate-buffered saline (PBS) (pH 7.4), after which an 8% (v/v) suspension of erythrocytes in PBS was prepared. Then, 50 µL of erythrocyte suspension was added to the test peptides, previously were dissolved in 50 µL of 0.1% BSA. The plate was incubated for 1.5 h at 37 °C and 950 rpm on the plate thermoshaker. After incubation, the plates were centrifuged for 15 min at 1000 g to settle intact erythrocytes. Next, aliquots of the supernatant were transferred to another plate to measure the amount of hemoglobin release by the absorbance of the solution at 405 nm. As “zero lysis” we used the supernatant obtained after centrifugation of erythrocytes incubated in a PBS solution without the addition of a peptide. As “100% lysis”, we used the supernatant obtained after centrifugation of erythrocytes incubated in a 0.1% Triton X-100, causing their complete lysis. The assays were conducted three times. The quantitative data were presented as an average means with standard deviations. Hemolysis(%)=OD405(compound)−OD405(zerolysis)/OD405(100%lysis)−OD405(zerolysis)×100%

Structure (SMILES)	Fold reduction of antibacterial activity in the presence of serum [1] [fold]	RP-HPLC Retention Time [2] [min]	Efficacy in the neutropenic peritonitis model (in words) [4]	Minimum inhibitory concentration (MIC): Gram-positive Geometric mean [5] [µM]	Hemolytic activity (in words) [8]	further results
CC(C)[C@@H]1NC(=O)[C@H](Cc2ccc(O)cc2)NC(=O)[C@H](Cc2c[nH]c3ccccc23)NC(=O)[C@@H](NC(=O)[C@H](Cc2ccccc2)NC(=O)CN)CSSC[C@@H](C(=O)N[C@@H](CC(N)=O)C(=O)O)NC(=O)[C@H](CCCNC(=N)N)NC(=O)[C@H](CCCNC(=N)N)NC(=O)[C@H](Cc2ccc(O)cc2)NC(=O)[C@@H]2CSSC[C@H](NC1=O)C(=O)N[C@@H](C)C(=O)N[C@@H](CCCNC(=N)N)C(=O)N[C@@H](CCCNC(=N)N)C(=O)N[C@@H](CC(N)=O)C(=O)NCC(=O)N[C@@H](C)C(=O)N[C@@H](CCCNC(=N)N)C(=O)N[C@@H](C(C)C)C(=O)N2 [AA139, reference compound] (H-GFCWYVCARRNGARVCYRRCN-OH; disulfide 3-20, 7-16)	4	25.67	effective	4 (≈ 10.2 µg/mL)	–	Minimum Inhibitory Concentration, MHB + 0.9% NaCl + 25% FBS ([1]; Table 1, medium with 25% fetal bovine serum): 1 µM; Minimum Inhibitory Concentration, MHB + 0.9% NaCl ([1]; Table 1, without FBS, dilutions in 0.1% BSA): 0.25 µM; Therapeutic efficacy (survival) after one-week experiment ([3]; peptide i.p. 10 mg/kg at 1 and 4 h post-infection, 7 days): 87.5%; Bacterial burden in mice blood (in words) ([4]; neutropenic BALB/c mice, n = 5, i.p. infection, single i.v. dose 1 h post-infection (AMPs 10 mg/kg, polymyxin B 5 mg/kg), CFU 5 h after treatment): complete reduction; Reduction of the CFU level in peritoneal fluid (PF) ([4]; neutropenic BALB/c mice, n = 5, single i.v. dose (AMPs 10 mg/kg, polymyxin B 5 mg/kg), CFU 5 h after treatment): ~ 5 log
CC[C@H](C)[C@@H]1NC(=O)[C@H](CCCNC(=N)N)NC(=O)[C@H](C)NC(=O)CNC(=O)[C@H](CC(N)=O)NC(=O)[C@H](CCCNC(=N)N)NC(=O)[C@H](CCCNC(=N)N)NC(=O)[C@H](C)NC(=O)[C@@H]2CSSC[C@H](NC1=O)C(=O)N[C@@H](Cc1ccc(O)cc1)C(=O)N[C@@H](CCCNC(=N)N)C(=O)N[C@@H](CCCNC(=N)N)C(=O)N[C@H](C(=O)N[C@@H](CC(N)=O)C(=O)O)CSSC[C@H](NC(=O)[C@H](Cc1ccc(O)cc1)NC(=O)CN)C(=O)N[C@@H](Cc1ccccc1)C(=O)N[C@@H]([C@@H](C)O)C(=O)N[C@@H](C)C(=O)N2 [Ap11] (H-GYCFTACARRNGARICYRRCN-OH; disulfide 3-20, 7-16)	4	25.17	ineffective	4 (≈ 9.8 µg/mL)	–	Fold reduction in the antimicrobial activity compared to Ap4 ([6]; Gram-negative GM values): at least 5 fold; Residual viability of bacteria in mature biofilm ([7]; 16 µM): about 20%
O=C(O)c1cn(C2CC2)c2cc(N3CCNCC3)c(F)cc2c1=O [ciprofloxacin, reference compound]	–	–	–	–	–	Survival (in words) ([3]; single i.p. dose of 10 mg/kg 1 h post-infection): survival of all mice; Effect on bacteria inside mature biofilm (in words) [7]: not able to impair bacteria inside biofilm
CC[C@H](C)[C@@H]1NC(=O)[C@H](CCCNC(=N)N)NC(=O)[C@H](C(C)C)NC(=O)CNC(=O)[C@H](CC(N)=O)NC(=O)[C@H](CCCNC(=N)N)NC(=O)[C@H](CCCNC(=N)N)NC(=O)[C@H](Cc2ccc(O)cc2)NC(=O)[C@@H]2CSSC[C@H](NC1=O)C(=O)N[C@@H](Cc1ccc(O)cc1)C(=O)N[C@@H](CCCNC(=N)N)C(=O)N[C@@H](CCCNC(=N)N)C(=O)N[C@H](C(=O)N[C@@H](CC(N)=O)C(=O)O)CSSC[C@H](NC(=O)[C@H](Cc1ccc(O)cc1)NC(=O)CN)C(=O)N[C@@H](Cc1ccccc1)C(=O)N[C@@H]([C@@H](C)O)C(=O)N[C@@H](C)C(=O)N2 [Ap4] (H-GYCFTACYRRNGVRICYRRCN-OH; disulfide 3-20, 7-16)	–	24.79	–	0.63 (≈ 1.62 µg/mL)	ability to lyse hRBCs is stronger	Minimum inhibitory concentration (MIC): Gram-negative Geometric mean ([6]; geometric mean (GM) of MICs against the 14 Gram-negative strains of Figure 2): 0.13 µM (≈ 0.334 µg/mL)
CC[C@H](C)[C@@H]1NC(=O)[C@H](CCCNC(=N)N)NC(=O)[C@H](C(C)C)NC(=O)CNC(=O)[C@H](CC(N)=O)NC(=O)[C@H](CCCNC(=N)N)NC(=O)[C@H](Cc2ccc(O)cc2)NC(=O)[C@H](Cc2ccc(O)cc2)NC(=O)[C@@H]2CSSC[C@H](NC1=O)C(=O)N[C@@H](C(C)C)C(=O)N[C@@H](CCCNC(=N)N)C(=O)N[C@@H](Cc1ccc(O)cc1)C(=O)N[C@H](C(=O)N[C@@H](CC(N)=O)C(=O)O)CSSC[C@H](NC(=O)[C@H](Cc1ccccc1)NC(=O)CN)C(=O)NCC(=O)N[C@@H](Cc1ccc(O)cc1)C(=O)N[C@@H](C)C(=O)N2 [UuBRI-21] (H-GFCGYACYYRNGVRICVRYCN-OH; disulfide 3-20, 7-16)	16	28.48	lack of effectivity	2 (≈ 4.95 µg/mL)	moderate hemolytic activity	–
